For this experiment, the system named is Yeast Sic1MUS-GFP degradation, Cln2 overexpression, flow cytometry. In words: degradation of ubiquitination-site mutant Sic1-GFP in yeast, confirmation, mechanism study for 26S proteasome disassembly project, flow cytometry, Cln2 overexpression, Sic1MUS mutant (AID 1311). Conditions: stronger effect = higher value. A general note: Flow cytometry measures light scatter and fluorescence of single cells or particles in a stream.

Molecules are shown by their SMILES. Where a SMILES comes first, the peptide text is derived from it. The star is where a group is joined. Cbz = O=C(OCc1ccccc1)*

Take `CC(=O)N1C(=O)C(=C2C=C(C)OC(C)=C2)c2ccccc21`: the percent GFP remaining is 2.25%. Regarding `CC(C)C[C@@H](C=O)NC(=O)[C@H](CC(C)C)NC(=O)[C@H](CC(C)C)NC(=O)OCc1ccccc1` (Cbz-Leu-Leu-Leu-aldehyde), the percent GFP remaining is 4.05%.

The values are drawn from PubChem BioAssay AID1311 (NMMLSC, 2008).
